# Test results published in ChEMBL document CHEMBL1250451, “Mechanistic insights into a Ca2+-dependent family of alpha-mannosidases in a human gut symbiont” (Nat Chem Biol, 2010).
# Key:
# Assay type in all cases: protein assay
# [1] = target: T1, Alpha-1,2-mannosidase (BT_3990) (Bacteroides thetaiotaomicron) (UniProt Q8A0N1); experiment: Activity of Bacteroides thetaiotaomicron GH92 alpha-mannosidase 3990 assessed as recovery of enzyme activity at 1 mM in presence of 7 mM Sc(3+) ions and in presence of 5 mM EGTA in 100 mM pH 7 MOPS buffer relative to enzyme activity in presence of calcium
# T1 sequence (whole entry): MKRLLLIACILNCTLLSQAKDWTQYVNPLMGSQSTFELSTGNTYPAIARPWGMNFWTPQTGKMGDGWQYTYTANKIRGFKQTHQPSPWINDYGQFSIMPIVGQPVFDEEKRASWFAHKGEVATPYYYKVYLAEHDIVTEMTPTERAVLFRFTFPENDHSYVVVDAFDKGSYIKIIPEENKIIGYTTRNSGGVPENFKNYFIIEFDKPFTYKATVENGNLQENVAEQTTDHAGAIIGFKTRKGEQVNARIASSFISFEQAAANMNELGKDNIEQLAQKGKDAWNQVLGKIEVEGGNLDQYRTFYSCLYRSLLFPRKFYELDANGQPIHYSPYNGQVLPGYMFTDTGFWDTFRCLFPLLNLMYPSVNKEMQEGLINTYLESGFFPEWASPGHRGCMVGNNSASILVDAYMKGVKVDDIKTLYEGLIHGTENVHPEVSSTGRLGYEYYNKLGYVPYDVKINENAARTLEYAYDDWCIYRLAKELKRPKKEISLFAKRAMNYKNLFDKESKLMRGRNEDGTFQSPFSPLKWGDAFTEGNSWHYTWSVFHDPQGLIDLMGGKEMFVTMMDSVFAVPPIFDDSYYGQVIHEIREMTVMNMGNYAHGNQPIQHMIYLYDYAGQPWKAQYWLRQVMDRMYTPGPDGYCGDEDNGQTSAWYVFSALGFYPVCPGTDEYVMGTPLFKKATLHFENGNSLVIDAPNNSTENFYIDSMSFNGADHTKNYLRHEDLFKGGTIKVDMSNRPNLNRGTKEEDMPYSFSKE
# [2] = target: T1, Alpha-1,2-mannosidase (BT_3990) (Bacteroides thetaiotaomicron); experiment: Activity of Bacteroides thetaiotaomicron GH92 alpha-mannosidase 3990 assessed as recovery of enzyme activity at 1 mM in presence of 7 mM Be(2+) ions and in presence of 5 mM EDTA in 100 mM pH 7 MOPS buffer relative to enzyme activity in presence of calcium
# [3] = target: T2, Alpha-1,2-mannosidase (BT_2199) (Bacteroides thetaiotaomicron) (UniProt Q8A5N9); experiment: Activity of Bacteroides thetaiotaomicron GH92 alpha-mannosidase 2199 assessed as recovery of enzyme activity at 1 mM in presence of 7 mM Zn(2+) ions and in presence of 5 mM EGTA in 100 mM pH 7 MOPS buffer relative to enzyme activity in presence of calcium
# T2 sequence (whole entry): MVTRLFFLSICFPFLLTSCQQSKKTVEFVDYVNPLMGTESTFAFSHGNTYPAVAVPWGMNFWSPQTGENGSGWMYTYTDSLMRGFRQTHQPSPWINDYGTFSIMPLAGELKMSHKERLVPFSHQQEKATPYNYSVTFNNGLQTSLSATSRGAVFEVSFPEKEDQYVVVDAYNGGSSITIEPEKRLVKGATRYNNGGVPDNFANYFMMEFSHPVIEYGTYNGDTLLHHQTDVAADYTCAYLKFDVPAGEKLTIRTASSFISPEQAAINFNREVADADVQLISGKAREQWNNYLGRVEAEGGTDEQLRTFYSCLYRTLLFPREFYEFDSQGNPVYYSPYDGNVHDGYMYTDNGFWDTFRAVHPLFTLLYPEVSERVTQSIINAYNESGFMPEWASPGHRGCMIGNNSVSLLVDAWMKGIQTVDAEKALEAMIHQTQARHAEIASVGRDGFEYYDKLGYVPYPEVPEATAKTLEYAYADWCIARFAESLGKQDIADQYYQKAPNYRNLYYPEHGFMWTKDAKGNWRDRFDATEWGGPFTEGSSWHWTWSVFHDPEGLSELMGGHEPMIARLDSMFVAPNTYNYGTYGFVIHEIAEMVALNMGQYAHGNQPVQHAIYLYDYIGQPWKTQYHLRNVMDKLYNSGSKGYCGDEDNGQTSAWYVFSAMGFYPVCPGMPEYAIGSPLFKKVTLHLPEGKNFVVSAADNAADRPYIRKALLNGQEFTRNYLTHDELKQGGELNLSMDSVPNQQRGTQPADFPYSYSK
# [4] = target: T1, Alpha-1,2-mannosidase (BT_3990) (Bacteroides thetaiotaomicron); experiment: Activity of Bacteroides thetaiotaomicron GH92 alpha-mannosidase 3990 assessed as recovery of enzyme activity at 1 mM in presence of 7 mM Ca(2+) ions and in presence of 5 mM EGTA in 100 mM pH 7 MOPS buffer relative to enzyme activity in presence of calcium
# [5] = target: T1, Alpha-1,2-mannosidase (BT_3990) (Bacteroides thetaiotaomicron); experiment: Activity of Bacteroides thetaiotaomicron GH92 alpha-mannosidase 3990 assessed as recovery of enzyme activity at 1 mM in presence of 7 mM Mn(2+) ions and in presence of 5 mM EDTA in 100 mM pH 7 MOPS buffer relative to enzyme activity in presence of calcium
# [6] = target: T1, Alpha-1,2-mannosidase (BT_3990) (Bacteroides thetaiotaomicron); experiment: Activity of Bacteroides thetaiotaomicron GH92 alpha-mannosidase 3990 assessed as recovery of enzyme activity at 1 mM in presence of 7 mM Zn(2+) ions and in presence of 5 mM EGTA in 100 mM pH 7 MOPS buffer relative to enzyme activity in presence of calcium
# [7] = target: T2, Alpha-1,2-mannosidase (BT_2199) (Bacteroides thetaiotaomicron); experiment: Activity of Bacteroides thetaiotaomicron GH92 alpha-mannosidase 2199 assessed as recovery of enzyme activity at 1 mM in presence of 7 mM Co(2+) ions and in presence of 5 mM EGTA in 100 mM pH 7 MOPS buffer relative to enzyme activity in presence of calcium
# [8] = target: T2, Alpha-1,2-mannosidase (BT_2199) (Bacteroides thetaiotaomicron); experiment: Activity of Bacteroides thetaiotaomicron GH92 alpha-mannosidase 2199 assessed as recovery of enzyme activity at 1 mM in absence of metal and in presence of 5 mM EGTA in 100 mM pH 7 MOPS buffer relative to enzyme activity in presence of calcium
# [9] = target: T2, Alpha-1,2-mannosidase (BT_2199) (Bacteroides thetaiotaomicron); experiment: Activity of Bacteroides thetaiotaomicron GH92 alpha-mannosidase 2199 assessed as recovery of enzyme activity at 1 mM in presence of 7 mM Zn(2+) ions and in presence of 5 mM EDTA in 100 mM pH 7 MOPS buffer relative to enzyme activity in presence of calcium
# [10] = target: T1, Alpha-1,2-mannosidase (BT_3990) (Bacteroides thetaiotaomicron); experiment: Activity of Bacteroides thetaiotaomicron GH92 alpha-mannosidase 3990 assessed as recovery of enzyme activity at 1 mM in presence of 7 mM Sr(2+) ions and in presence of 5 mM EGTA in 100 mM pH 7 MOPS buffer relative to enzyme activity in presence of calcium
# [11] = target: T1, Alpha-1,2-mannosidase (BT_3990) (Bacteroides thetaiotaomicron); experiment: Activity of Bacteroides thetaiotaomicron GH92 alpha-mannosidase 3990 assessed as recovery of enzyme activity at 1 mM in presence of 7 mM Mg(2+) ions and in presence of 5 mM EDTA in 100 mM pH 7 MOPS buffer relative to enzyme activity in presence of calcium
# [12] = target: T1, Alpha-1,2-mannosidase (BT_3990) (Bacteroides thetaiotaomicron); experiment: Activity of Bacteroides thetaiotaomicron GH92 alpha-mannosidase 3990 assessed as recovery of enzyme activity at 1 mM in absence of metal and in presence of 5 mM EDTA in 100 mM pH 7 MOPS buffer relative to enzyme activity in presence of calcium
smiles,measurement,setting,value
O=[N+]([O-])c1ccc(O[C@H]2O[C@H](CO)[C@@H](O)[C@H](O)[C@@H]2O)cc1,Activity,[1],0%
same,Activity,[2],0%
same,Activity,[3],0%
same,Activity,[4],100%
same,Activity,[5],13%
same,Activity,[6],0%
same,Activity,[7],12%
same,Activity,[8],0%
same,Activity,[9],0%
same,Activity,[10],12%
same,Activity,[11],0%
same,Activity,[12],0%
